Experimental data taken from ChEMBL document CHEMBL1147602, “DNA binding ligands targeting drug-resistant Gram-positive bacteria. Part 1: Internal benzimidazole derivatives” (Bioorg Med Chem Lett, 2004).
Values after ≈ are worked out from the molar mass of the structure shown. Values joined by “and” are separate entries in the source; they are usually repeats but may differ in a detail not shown here. Equal entries are not always repeated. Active and inactive are the calls of the source. The calls are words filed in the database; no cut-off is given here.

Legend:
[1] = system: Streptococcus pneumoniae; test: Antibacterial activity against penicillin-sensitive Streptococcus pneumoniae ATCC 49619 strain; type: functional
[2] = system: Staphylococcus aureus; test: Antibacterial activity against methicillin-resistant Staphylococcus aureus ATCC 27660 strain; type: functional
[3] = system: Enterococcus faecalis; test: Antibacterial activity against vancomycin-sensitive Enterococcus faecalis ATCC 29212 strain; type: functional
[4] = system: Escherichia coli; test: Antibacterial activity against Escherichia coli ATCC 25922 strain; type: functional
[5] = system: Enterococcus faecalis; test: Antibacterial activity against vancomycin-resistant Enterococcus faecalis ATCC 51559 strain; type: functional
[6] = system: Streptococcus pneumoniae; test: Antibacterial activity against penicillin-resistant Streptococcus pneumoniae ATCC 51422 strain; type: functional
[7] = system: Staphylococcus aureus; test: Antibacterial activity against methicillin-sensitive Staphylococcus aureus ATCC 13709 strain; type: functional
[8] = molecular target: Nucleic Acid; test: Dissociation constant for the DNA binding was determined by quantitative DNase I footprint titration; type: nucleic-acid assay
[9] = system: Haemophilus influenzae; test: Antibacterial activity against Haemophilus influenzae ATCC 78025 strain; type: functional
[10] = system: Moraxella catarrhalis; test: Antibacterial activity against Moraxella catarrhalis ATCC 25238 strain; type: functional
[11] = system: Pseudomonas aeruginosa; test: Antibacterial activity against Pseudomonas aeruginosa (ATCC 27853) strain; inactive; type: functional
[12] = system: Streptococcus pneumoniae; test: Antibacterial activity against penicillin-resistant Streptococcus pneumoniae ATCC 51422 strain; NA means not analyzed; type: functional, organism-based
[13] = system: Enterococcus faecalis; test: Antibacterial activity against vancomycin-resistant Enterococcus faecalis ATCC 51559 strain; NA means not analyzed; type: functional, organism-based
[14] = system: Staphylococcus aureus; test: Antibacterial activity against methicillin-susceptible Staphylococcus aureus ATCC 13709 strain; type: functional
[15] = system: Mus musculus; test: In vivo protective dose for efficacy against a lethal infection of methicillin-resistant Staphylococcus aureus in a mouse peritoneal sepsis model administered intravenously; type: functional
[16] = system: Enterococcus faecalis; test: Antibacterial activity against vancomycin-susceptible Enterococcus faecalis ATCC 29212 strain; type: functional
[17] = system: Staphylococcus aureus; test: Antibacterial activity against methicillin-susceptible Staphylococcus aureus ATCC 13709 strain; (Range is 1-2 ug/mL); type: functional

Row | Structure (SMILES) | MIC [1] | MIC [2] | MIC [3] | MIC [4] | MIC [5] | MIC [6] | MIC [7] | Kd [8] | MIC [9] | MIC [10] | MIC [11] | MIC [12] | MIC [13] | MIC [14] | Protective dose [15] | MIC [16] | MIC [17]
1 | Cn1cc(NC(=O)c2ccc(Cl)cc2F)cc1-c1nc2cc(C(=O)NCCN3CCOCC3)ccc2[nH]1 | 0.03 µg/mL (≈ 0.0571 µM) | 0.25 µg/mL (≈ 0.476 µM) | 0.03 µg/mL (≈ 0.0571 µM) | > 32 µg/mL | 0.06 µg/mL (≈ 0.114 µM) | 0.03 µg/mL (≈ 0.0571 µM) | 0.13 µg/mL (≈ 0.248 µM) |  |  |  |  |  |  |  |  |  | 
2 | Cn1cc(NC(=O)c2cc3ccccc3cn2)cc1-c1nc2cc(C(=O)NCCN3CCOCC3)ccc2[nH]1 | 0.25 µg/mL (≈ 0.477 µM) | 0.5 µg/mL (≈ 0.955 µM) | 0.5 µg/mL (≈ 0.955 µM) | > 32 µg/mL | 1 µg/mL (≈ 1.91 µM) | 0.5 µg/mL (≈ 0.955 µM) | 0.5 µg/mL (≈ 0.955 µM) | ~10 nM |  |  |  |  |  |  |  |  | 
3 | Cn1cc(NC(=O)c2ccc(Cl)cc2F)cc1C(=O)Nc1cc(-c2nc3cc(C(=O)NCCN4CCOCC4)ccc3[nH]2)n(C)c1 | 0.03 µg/mL (≈ 0.0464 µM) | 0.13 µg/mL (≈ 0.201 µM) | 0.03 µg/mL (≈ 0.0464 µM) | 8 µg/mL (≈ 12.4 µM) | 0.13 µg/mL (≈ 0.201 µM) | 0.13 µg/mL (≈ 0.201 µM) | 0.25 µg/mL (≈ 0.386 µM) |  |  |  |  |  |  |  |  |  | 
4 | Cn1cc(NC(=O)c2sc3ccccc3c2Cl)cc1C(=O)Nc1cc(-c2nc3cc(C(=O)NCCN4CCOCC4)ccc3[nH]2)n(C)c1 | 0.13 µg/mL (≈ 0.19 µM) | 0.5 µg/mL (≈ 0.73 µM) | 0.25 µg/mL (≈ 0.365 µM) | > 32 µg/mL | 0.25 µg/mL (≈ 0.365 µM) | 0.13 µg/mL (≈ 0.19 µM) | 0.13 µg/mL (≈ 0.19 µM) |  |  |  |  |  |  |  |  |  | 
5 | Cn1cc(NC(=O)c2sc3ccccc3c2Cl)cc1-c1nc2cc(C(=O)NCCN3CCOCC3)ccc2[nH]1 | 0.13 µg/mL (≈ 0.231 µM) | 0.13 µg/mL (≈ 0.231 µM) | 0.5 µg/mL (≈ 0.888 µM) | > 32 µg/mL | 0.25 µg/mL (≈ 0.444 µM) | 0.25 µg/mL (≈ 0.444 µM) | 0.25 µg/mL (≈ 0.444 µM) |  |  |  |  |  |  |  |  |  | 
6 | Cn1cc(NC(=O)c2cc3cc4c(cc3s2)OCO4)cc1-c1nc2cc(C(=O)NCCN3CCOCC3)ccc2[nH]1 | 0.06 µg/mL (≈ 0.105 µM) | 0.03 µg/mL (≈ 0.0524 µM) | 0.03 µg/mL (≈ 0.0524 µM) | 0.5 µg/mL (≈ 0.873 µM) | 0.03 µg/mL (≈ 0.0524 µM) | 0.06 µg/mL (≈ 0.105 µM) | 0.03 µg/mL (≈ 0.0524 µM) |  | 0.06 µg/mL (≈ 0.105 µM) | 0.031 µg/mL (≈ 0.0541 µM) | 32 µg/mL (≈ 55.9 µM) |  |  |  |  |  | 
7 | Cn1cc(NC(=O)c2sccc2Cl)cc1-c1nc2cc(C(=O)NCCN3CCOCC3)ccc2[nH]1 | 4 µg/mL (≈ 7.8 µM) | 8 µg/mL (≈ 15.6 µM) | 4 µg/mL (≈ 7.8 µM) | > 32 µg/mL |  |  | 8 µg/mL (≈ 15.6 µM) | ~500 nM |  |  |  | inactive | inactive |  |  |  | 
8 | Cn1cc(NC(=O)c2sccc2Cl)cc1C(=O)Nc1cc(-c2nc3cc(C(=O)NCCN4CCOCC4)ccc3[nH]2)n(C)c1 | 0.25 µg/mL (≈ 0.394 µM) | 0.25 µg/mL (≈ 0.394 µM) |  | 4 µg/mL (≈ 6.3 µM) | 0.13 µg/mL (≈ 0.205 µM) | 0.03 µg/mL (≈ 0.0472 µM) |  | < 0.1 nM |  |  |  |  |  | 0.25 µg/mL (≈ 0.394 µM) | 50 mg/kg and 20 mg/kg | 0.25 µg/mL (≈ 0.394 µM) | 
9 | Cn1cc(NC(=O)c2sccc2Cl)cc1C(=O)Nc1cc(-c2nc3cc(C(=O)NCCN4CCSCC4)ccc3[nH]2)n(C)c1 | 0.13 µg/mL (≈ 0.2 µM) | 0.5 µg/mL (≈ 0.768 µM) | 0.13 µg/mL (≈ 0.2 µM) | > 32 µg/mL | 0.13 µg/mL (≈ 0.2 µM) | 0.06 µg/mL (≈ 0.0921 µM) | 1 µg/mL (≈ 1.54 µM) |  |  |  |  |  |  |  |  |  | 
10 | Cn1cc(NC(=O)c2ccc(F)cc2F)cc1C(=O)Nc1cc(-c2nc3cc(C(=O)NCCN4CCOCC4)ccc3[nH]2)n(C)c1 | 0.06 µg/mL (≈ 0.0951 µM) | 0.13 µg/mL (≈ 0.206 µM) | 0.06 µg/mL (≈ 0.0951 µM) | 4 µg/mL (≈ 6.34 µM) | 0.25 µg/mL (≈ 0.396 µM) | 0.06 µg/mL (≈ 0.0951 µM) | 0.25 µg/mL (≈ 0.396 µM) |  |  |  |  |  |  |  |  |  | 
11 | Cn1cc(NC(=O)c2cc(NC(=O)c3cc(NC(=O)c4sccc4Cl)cn3C)cn2C)cc1C(=O)NCCN1CCOCC1 | 0.13 µg/mL (≈ 0.203 µM) |  |  | > 32 µg/mL |  |  |  |  |  |  |  |  |  |  |  | 1 µg/mL (≈ 1.56 µM) | 2 µg/mL (≈ 3.12 µM)
12 | Cn1cc(NC(=O)c2ccc3[nH]c(-c4cc(NC(=O)c5sccc5Cl)cn4C)nc3c2)cc1C(=O)NCCN1CCOCC1 | 0.25 µg/mL (≈ 0.394 µM) |  |  | > 32 µg/mL |  |  |  |  |  |  |  |  |  | 0.13 µg/mL (≈ 0.205 µM) |  | 0.25 µg/mL (≈ 0.394 µM) | 
13 | Cn1cc(NC(=O)c2sccc2Cl)cc1C(=O)Nc1cc(-c2nc3cc(C(=O)NCCN4CCCCC4)ccc3[nH]2)n(C)c1 | 0.25 µg/mL (≈ 0.395 µM) | 0.5 µg/mL (≈ 0.79 µM) | 0.5 µg/mL (≈ 0.79 µM) | > 32 µg/mL | 0.5 µg/mL (≈ 0.79 µM) | 0.13 µg/mL (≈ 0.205 µM) | 2 µg/mL (≈ 3.16 µM) |  |  |  |  |  |  |  |  |  | 
